According to US20160368992A1, “A METHOD OF INCREASING GIPCR SIGNALIZATION IN THE CELLS OF A SCOLIOTIC SUBJECT” (CHU SAINTE-JUSTINE, priority 2013, published 2016):

Key:
[1] = system: GiPCR signaling; assay: CDS integrated response to GiPCR ligands in MC3T3-E1 osteoblastic cell line; assay type: cell-based; settings: MC3T3-E1 cells treated with rOPN prior to stimulation
Procedure: The functional evaluation of Gi, Gs and Gq proteins was assessed by CDS assays using osteoblasts cells derived from C57Bl/6j WT and C57Bl/6j OPN^−/− mice (bipedal and quadrupedal) using CellKey™ apparatus, as previously described (Akoume et al., 2010, and WO 2010/040234 to Moreau et al.).
MC3T3-E1 cells were used to check the effect of the knockdown of OPN and its receptors. MC3T3-E1 osteoblasts cells were transiently transfected in serum-free medium, using Lipofectamine™ RNAiMAX reagent (Invitrogen) according to the manufacturer's instructions and functional experiments were performed 48 h post transfection. The sequence of RNA oligonucleotides used for the knockdown of different genes are, ssp1 (encodes OPN) (CCACAGCCACAAGCAGUCCAGAUUA (SEQ ID NO: 9)), integrin β1 (CCUAAGUCAGCAGUAGGAACAUUAU (SEQ ID NO: 10)), integrin β3 (CCUCCAGCUCAUUGUUGAUGCUUAU (SEQ ID NO: 11)), integrin α5 (CCGAGUACCUGAUCAACCUGGUUCA (SEQ ID NO: 12)), integrin α8 (GAGAUGAAACUGAAUUCCGAGAUAA (SEQ ID NO: 13)), integrin αv (GACUGUUGAGUAUGCUCCAUGUAGA (SEQ ID NO: 14 and CD44 (GAACAAGGAGUCGUCAGAAACUCCA (SEQ ID NO: 15)). Two other siRNAs against integrin α5 were tested (UCCACCAUGUCUAUGAGCUCAUCAA (SEQ ID NO:16) and UCAGGAGCAGAUUGCAGAAUCUUAU (SEQ ID NO:17)).
To further investigate the role of OPN in Gi protein-mediated receptor signaling, several lines of experiments were performed using MC3T3-E1 osteoblastic cell line. Since these cells express OPN, was first examined whether depletion of OPN by siRNA influences the capacity of GiPCR ligands to induce cell signaling as measured by CDS in MC3T3-E1 cells. […] Similar results were obtained when cells were stimulated with oxymethazolin. […] To confirm this hypothesis, cells were treated with exogenous recombinant OPN (rOPN) prior to DAMGO and oxymethazolin stimulation.

[2] = system: Gi1, Gi2, Gi3 proteins; assay: Immunoprecipitation/Western blot: phosphorylation of Gi proteins in MC3T3-E1 cells; assay type: cell-based; settings: rOPN vs PBS
Procedure: Given that the defective GiPCR signaling associated with idiopathic scoliosis has causatively been related to increased phosphorylation of Gi proteins (Moreau et al., 2004), it was of interest to examined whether OPN influences the phosphorylation status of Gi proteins. Accordingly, MC3T3-E1 cells were treated with rOPN, then cell lysates were immunoprecipitated with antibodies against Gi1, Gi2 or Gi3 protein isoforms, and the phosphorylation level was examined by Western blot using anti-phospho serine/threonine or anti-tyrosine antibodies. […] However, band density was higher in OPN-treated cells.
To support the involvement of α5β1 integrin in this process, cells were pre-treated with antibody against α5β1 integrin prior to rOPN treatment.
Cell extracts prepared from MC3T3-E1 that had been treated with rOPN in the presence or absence of an inhibitor specific for each kinase were subjected to immunoprecipitation and Western blot analysis. […] However, both serine and tyrosine phosphorylation were attenuated by inhibitors of FAK (FAK inhibitor-14), Scr (PP2), CaMKII (KN93), PI3K (wortmannin-data not shown), MEK (PD98059), ERK1/2 (FR180204), JNK (SP60125) and P38 (SB203580).

rOPN: exogenous recombinant osteopontin (R&D systems)
integrated response to DAMGO and oxymethazolin after rOPN treatment [1]: decrease in the integrated response in a concentration-dependent manner | phosphorylated serine and tyrosine residues in Gi precipitates (band density) [2]: higher
